The numbers were not newly measured in patent US20030235623A1, “Aqueous disinfecting compositions with rapid bactericidal effect” (priority 2002, published 2003), which cites them from elsewhere.

This series has as its system some bacteria.

For the molecule `OO` [Hydrogen peroxide], the “concentration known to inhibit the growth of some bacteria” value is 25 mg/L.
